Patent US12577206B2 (BRISTOL-MYERS SQUIBB COMPANY, priority 2020, dated 2026)

Tests used:
human FPR2 = target: T1, human FPR2 (Homo sapiens, UniProt P25090); assay: FPR2 cyclic adenosine monophosphate (cAMP) assay; format: cell-based; details: CHO cells overexpressing human FPR2; forskolin 5 μM; inhibition of cAMP production; HTRF; read-out: hFPR2 cAMP2 EC50
T1 sequence (P25090 1-351): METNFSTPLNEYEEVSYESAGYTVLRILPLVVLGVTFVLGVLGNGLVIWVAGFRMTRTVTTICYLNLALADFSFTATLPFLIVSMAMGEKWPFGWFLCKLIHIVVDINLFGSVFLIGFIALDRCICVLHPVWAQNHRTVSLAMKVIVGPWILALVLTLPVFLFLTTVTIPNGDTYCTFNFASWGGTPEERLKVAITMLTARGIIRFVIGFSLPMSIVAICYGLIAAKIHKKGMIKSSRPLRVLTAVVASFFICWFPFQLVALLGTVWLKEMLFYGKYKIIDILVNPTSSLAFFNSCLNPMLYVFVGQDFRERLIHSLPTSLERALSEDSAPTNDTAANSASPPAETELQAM
Outline: (§1)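 CHO cells overexpressing human FPR1 (4,000/well) or FPR2 (2,000/well) were incubated 30 min at room temperature with compound (0.020 nM to 100 μM, 1% DMSO), IBMX 200 μM, and forskolin at 10 μM (FPR1) or 5 μM (FPR2), all final. HTRF cAMP read-out; inhibition fitted by 4-parameter logistic equation.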

human FPR1 = target: T2, human FPR1 (Homo sapiens, UniProt P21462); assay: FPR1 cyclic adenosine monophosphate (cAMP) assay; format: cell-based; details: CHO cells overexpressing human FPR1; forskolin 10 μM; inhibition of cAMP production; HTRF; read-out: hFPR1 cAMP2 EC50
T2 sequence (P21462 1-350): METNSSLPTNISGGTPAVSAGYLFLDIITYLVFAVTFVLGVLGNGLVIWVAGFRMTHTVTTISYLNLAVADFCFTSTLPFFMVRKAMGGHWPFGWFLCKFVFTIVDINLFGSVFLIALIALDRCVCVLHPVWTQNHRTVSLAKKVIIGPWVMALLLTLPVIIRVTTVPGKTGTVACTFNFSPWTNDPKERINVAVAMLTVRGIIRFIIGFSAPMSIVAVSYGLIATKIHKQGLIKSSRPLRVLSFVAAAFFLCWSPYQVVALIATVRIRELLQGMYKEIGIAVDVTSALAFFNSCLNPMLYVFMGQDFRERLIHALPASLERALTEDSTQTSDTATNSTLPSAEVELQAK
Outline: as §1

| Compound | EC50 (human FPR2) [nM] | EC50 (human FPR1) [nM] |
| --- | --- | --- |
| COc1cc(F)c(-c2c(NC(=O)c3ccc(OC(F)F)cc3)c(=O)n(-c3nc(NCC(=O)NC4CC4)ccc3C(F)(F)F)n2C)c(F)c1 [Example 229, N-[2-(6-{[(cyclopropylcarbamoyl)methy]amino}-3-(trifluoromethyl)pyridin-2-yl)-5-(2,6-difluoro-4-methoxyphenyl)-1-methyl-3-oxo-2,3-dihydro-1H-pyrazol-4-yl]-4-(difluoromethoxy)benzamide] | 3 | > 10000 |
| COc1cc(O)c(-c2c(NC(=O)c3ccc(OC(F)F)cc3)c(=O)n(-c3nc(NCCO)ccc3C(F)(F)F)n2C)c(F)c1 [Example 230, 4-(difluoromethoxy)-N-[5-(2-fluoro-6-hydroxy-4-methoxyphenyl)-2-{6-[(2-hydroxyethyl)amino]-3-(trifluoromethyl)pyridin-2-yl}-1-methyl-3-oxo-2,3-dihydro-1H-pyrazol-4-yl]benzamide] | 10 | > 10000 |
| COc1cc(F)c(-c2c(NC(=O)c3ccc(OC(F)F)cc3)c(=O)n(-c3nc(NC4(CO)CC4)ccc3C(F)(F)F)n2C)c(F)c1 [Example 231, N-[5-(2,6-difluoro-4-methoxyphenyl)-2-(6-{[1-(hydroxymethyl)cyclopropyl]amino}-3-(trifluoromethyl)pyridin-2-yl)-1-methyl-3-oxo-2,3-dihydro-1H-pyrazol-4-yl]-4-(difluoromethoxy)benzamide] | 5 | > 10000 |
| CNC(=O)[C@H](C)Nc1ccc(C(F)(F)F)c(-n2c(=O)c(NC(=O)c3ccc(OC(F)F)cc3)c(-c3c(F)cc(OC)cc3F)n2C)n1 [Example 232, N-[5-(2,6-difluoro-4-methoxyphenyl)-1-methyl-2-(6-{[(1S)-1-(methylcarbamoyl)ethyl]amino}-3-(trifluoromethyl)pyridin-2-yl)-3-oxo-2,3-dihydro-1H-pyrazol-4-yl]-4-(difluoromethoxy)benzamide] | 5 | > 10000 |
| CNc1ccc(C(F)(F)F)c(-n2c(=O)c(NC(=O)c3ccc(OC(F)F)cc3)c(-c3c(O)cc(OC)cc3F)n2C)n1 [Example 233, 4-(difluoromethoxy)-N-[5-(2-fluoro-6-hydroxy-4-methoxyphenyl)-1-methyl-2-[6-(methylamino)-3-(trifluoromethyl)pyridin-2-yl]-3-oxo-2,3-dihydro-1H-pyrazol-4-yl]benzamide] | 8 | > 10000 |
| COc1cc(F)c(-c2c(NC(=O)c3ccc(OC(F)F)cc3)c(=O)n(-c3nc(Nc4ncn[nH]4)ccc3C(F)(F)F)n2C)c(F)c1 [Example 234, N-[5-(2,6-difluoro-4-methoxyphenyl)-1-methyl-3-oxo-2-{6-[(1H-1,2,4-triazol-5-yl)amino]-3-(trifluoromethyl)pyridin-2-yl}-2,3-dihydro-1H-pyrazol-4-yl]-4-(difluoromethoxy)benzamide] | 3 | 2900 |
| COCCNc1ccc(C(F)(F)F)c(-n2c(=O)c(NC(=O)c3ccc(OC(F)F)cc3)c(-c3c(F)cc(OC)cc3F)n2C)n1 [Example 235, N-[5-(2,6-difluoro-4-methoxyphenyl)-2-{6-[(2-methoxyethyl)amino]-3-(trifluoromethyl)pyridin-2-yl}-1-methyl-3-oxo-2,3-dihydro-1H-pyrazol-4-yl]-4-(difluoromethoxy)benzamide] | 1 | > 10000 |
| COc1cc(F)c(-c2c(NC(=O)c3ccc(OC(F)F)cc3)c(=O)n(-c3nc(N[C@H](C)CO)ccc3C(F)(F)F)n2C)c(F)c1 [Example 236, N-[5-(2,6-difluoro-4-methoxyphenyl)-2-(6-{[(2R)-1-hydroxypropan-2-yl]amino}-3-(trifluoromethyl)pyridin-2-yl)-1-methyl-3-oxo-2,3-dihydro-1H-pyrazol-4-yl]-4-(difluoromethoxy)benzamide] | 9 | > 10000 |
| COc1cc(F)c(-c2c(NC(=O)c3ccc(OC(F)F)cc3)c(=O)n(-c3nc(N[C@@H](C)CO)ccc3C(F)(F)F)n2C)c(F)c1 [Example 237, N-[5-(2,6-difluoro-4-methoxyphenyl)-2-(6-{[(2S)-1-hydroxypropan-2-yl]amino}-3-(trifluoromethyl)pyridin-2-yl)-1-methyl-3-oxo-2,3-dihydro-1H-pyrazol-4-yl]-4-(difluoromethoxy)benzamide] | 1 | > 5000 |
| CNC(=O)CNc1ccc(C(F)(F)F)c(-n2c(=O)c(NC(=O)c3ccc(OC(F)F)cc3)c(-c3c(F)cc(OC)cc3F)n2C)n1 [Example 238, N-[5-(2,6-difluoro-4-methoxyphenyl)-1-methyl-2-(6-{[(methylcarbamoyl)methyl]amino}-3-(trifluoromethyl)pyridin-2-yl)-3-oxo-2,3-dihydro-1H-pyrazol-4-yl]-4-(difluoromethoxy)benzamide] | 3 | > 10000 |
| COc1cc(F)c(-c2c(NC(=O)c3ccc(OC(F)F)cc3)c(=O)n(-c3nc(N4CCN(CC(F)(F)F)CC4)ccc3Cl)n2C)c(F)c1 [Example 239, N-(2-{3-chloro-6-[4-(2,2,2-trifluoroethyl)piperazin-1-yl]pyridin-2-yl}-5-(2,6-difluoro-4-methoxyphenyl)-1-methyl-3-oxo-2,3-dihydro-1H-pyrazol-4-yl)-4-(difluoromethoxy)benzamide] | 5 | 2700 |
| COc1cc(F)c(-c2c(NC(=O)c3ccc(OC(F)F)cc3)c(=O)n(-c3nc(N4CCN(CC(F)F)CC4)ccc3Cl)n2C)c(F)c1 [Example 240, N-(2-{3-chloro-6-[4-(2,2-difluoroethyl)piperazin-1-yl]pyridin-2-yl}-5-(2,6-difluoro-4-methoxyphenyl)-1-methyl-3-oxo-2,3-dihydro-1H-pyrazol-4-yl)-4-(difluoromethoxy)benzamide] | 2 | 1300 |
| COc1cc(F)c(-c2c(NC(=O)c3ccc(OC(F)F)cc3)c(=O)n(-c3nc(N(C)S(C)(=O)=O)ccc3C(F)(F)F)n2C)c(F)c1 [Example 241, N-[5-(2,6-difluoro-4-methoxyphenyl)-1-methyl-2-[6-(N-methylmethanesulfonamido)-3-(trifluoromethyl)pyridin-2-yl]-3-oxo-2,3-dihydro-1H-pyrazol-4-yl]-4-(difluoromethoxy)benzamide] | 2 | > 10000 |

More lines, now with the values ahead:

| EC50 (human FPR2) [nM] | EC50 (human FPR1) [nM] | Compound |
| --- | --- | --- |
| 20 | > 10000 | COc1cc(F)c(-c2c(NC(=O)c3ccc(OC(F)F)cc3)c(=O)n(-c3nc(Cl)ccc3Cl)n2C)c(F)c1 [Example 242, N-[2-(3,6-dichloropyridin-2-yl)-5-(2,6-difluoro-4-methoxyphenyl)-1-methyl-3-oxo-2,3-dihydro-1H-pyrazol-4-yl]-4-(difluoromethoxy)benzamide] |
| 6 | > 10000 | COc1cc(F)c(-c2c(NC(=O)c3ccc(OC(F)F)cc3)c(=O)n(-c3nc(N[C@H](C)C4CC4)ccc3C(F)(F)F)n2C)c(F)c1 [Example 243, N-[2-(6-{[(1R)-1-cyclopropylethyl]amino}-3-(trifluoromethyl)pyridin-2-yl)-5-(2,6-difluoro-4-methoxyphenyl)-1-methyl-3-oxo-2,3-dihydro-1H-pyrazol-4-yl]-4-(difluoromethoxy)benzamide] |
| 35 | > 10000 | CCc1ccc(N2CCN(C)CC2)nc1-n1c(=O)c(NC(=O)c2ccc(OC(F)F)cc2)c(-c2c(F)cc(OC)cc2F)n1C [Example 244, N-[5-(2,6-difluoro-4-methoxyphenyl)-2-[3-ethyl-6-(4-methylpiperazin-1-yl)pyridin-2-yl]-1-methyl-3-oxo-2,3-dihydro-1H-pyrazol-4-yl]-4-(difluoromethoxy)benzamide] |
| 20 | 1200 | COc1ccc(-c2c(NC(=O)c3ccc(OC(F)F)cc3)c(=O)n(-c3ncccc3Cl)n2C)cc1 [Example 245, N-[2-(3-chloropyridin-2-yl)-5-(4-methoxyphenyl)-1-methyl-3-oxo-2,3-dihydro-1H-pyrazol-4-yl]-4-(difluoromethoxy)benzamide] |
| 315 | > 10000 | COc1ccc(-c2c(NC(=O)c3ccc(OC(F)F)cc3)c(=O)n(-c3ncccc3C(F)(F)F)n2C)cc1C [Example 246, 4-(difluoromethoxy)-N-(5-(4-methoxy-3-methylphenyl)-1-methyl-3-oxo-2-(3-(trifluoromethyl)pyridin-2-yl)-2,3-dihydro-1H-pyrazol-4-yl)benzamide] |
| 5 | 630 | COc1cc(F)c(-c2c(NC(=O)c3ccc(OC(F)F)cc3)c(=O)n(-c3nc(N4CCN(S(C)(=O)=O)CC4)ccc3Cl)n2C)c(F)c1 [Example 247, N-{2-[3-chloro-6-(4-methanesulfonylpiperazin-1-yl)pyridin-2-yl]-5-(2,6-difluoro-4-methoxyphenyl)-1-methyl-3-oxo-2,3-dihydro-1H-pyrazol-4-yl}-4-(difluoromethoxy)benzamide] |
